# From patent US20230125667A1, “NOVEL TDZD ANALOGS AS AGENTS THAT DELAY, PREVENT, OR REVERSE AGE-ASSOCIATED DISEASES AND AS ANTI-CANCER AND ANTILEUKEMIC AGENTS” (United States Government as represented by the Department …, priority 2020, published 2023)
# Assays:
# CCRF-CEM = experiment: NCI-60 growth inhibition: CCRF-CEM (Leukemia); assay type: cell-based, human; conditions: Homo sapiens
# HL-60(TB) = experiment: NCI-60 growth inhibition: HL-60(TB) (Leukemia); assay type: cell-based, human; conditions: Homo sapiens; HL-60(TB) (Leukemia); read-out: GI50
# K-562 = experiment: NCI-60 growth inhibition: K-562 (Leukemia); assay type: cell-based, human; conditions: Homo sapiens, K562
# MOLT-4 = experiment: NCI-60 growth inhibition: MOLT-4 (Leukemia); assay type: cell-based, human; conditions: Homo sapiens
# RPMI-8226 = experiment: NCI-60 growth inhibition: RPMI-8226 (Leukemia); assay type: cell-based, human; conditions: Homo sapiens
# SR = experiment: NCI-60 growth inhibition: SR (Leukemia); assay type: cell-based, human; conditions: Homo sapiens
# EKVX = experiment: NCI-60 growth inhibition: EKVX (Non-Small-Cell Lung Cancer); assay type: cell-based, human; conditions: Homo sapiens
# HOP-92 = experiment: NCI-60 growth inhibition: HOP-92 (Non-Small-Cell Lung Cancer); assay type: cell-based, human; conditions: Homo sapiens
# NCI-H23 = experiment: NCI-60 growth inhibition: NCI-H23 (Non-Small-Cell Lung Cancer); assay type: cell-based, human; conditions: Homo sapiens
# NCI-H460 = experiment: NCI-60 growth inhibition: NCI-H460 (Non-Small-Cell Lung Cancer); assay type: cell-based, human; conditions: Homo sapiens
# COLO 205 = experiment: NCI-60 growth inhibition: COLO 205 (Colon Cancer); assay type: cell-based, human; conditions: Homo sapiens
# HCT-15 = experiment: NCI-60 growth inhibition: HCT-15 (Colon Cancer); assay type: cell-based, human; conditions: Homo sapiens
# HT29 = experiment: NCI-60 growth inhibition: HT29 (Colon Cancer); assay type: cell-based, human; conditions: Homo sapiens, HT-29
# SW-620 = experiment: NCI-60 growth inhibition: SW-620 (Colon Cancer); assay type: cell-based, human; conditions: Homo sapiens
# SF-268 = experiment: NCI-60 growth inhibition: SF-268 (CNS Cancer); assay type: cell-based, human; conditions: Homo sapiens
# SF-539 = experiment: NCI-60 growth inhibition: SF-539 (CNS Cancer); assay type: cell-based, human; conditions: Homo sapiens
# SNB-19 = experiment: NCI-60 growth inhibition: SNB-19 (CNS Cancer); assay type: cell-based, human; conditions: Homo sapiens
# U251 = experiment: NCI-60 growth inhibition: U251 (CNS Cancer); assay type: cell-based, human; conditions: Homo sapiens, U-251
# LOX IMVI = experiment: NCI-60 growth inhibition: LOX IMVI (Melanoma); assay type: cell-based, human; conditions: Homo sapiens
# MALME-3M = experiment: NCI-60 growth inhibition: MALME-3M (Melanoma); assay type: cell-based, human; conditions: Homo sapiens
# M14 = experiment: NCI-60 growth inhibition: M14 (Melanoma); assay type: cell-based, human; conditions: Homo sapiens
# MDA-MB-435 = experiment: NCI-60 growth inhibition: MDA-MB-435 (Melanoma); assay type: cell-based, human; conditions: Homo sapiens
# SK-MEL-2 = experiment: NCI-60 growth inhibition: SK-MEL-2 (Melanoma); assay type: cell-based, human; conditions: Homo sapiens
# SK-MEL-28 = experiment: NCI-60 growth inhibition: SK-MEL-28 (Melanoma); assay type: cell-based, human; conditions: Homo sapiens
# SK-MEL-5 = experiment: NCI-60 growth inhibition: SK-MEL-5 (Melanoma); assay type: cell-based, human; conditions: Homo sapiens
# UACC-257 = experiment: NCI-60 growth inhibition: UACC-257 (Melanoma); assay type: cell-based, human; conditions: Homo sapiens
# UACC-62 = experiment: NCI-60 growth inhibition: UACC-62 (Melanoma); assay type: cell-based, human; conditions: Homo sapiens
# IGROV1 = experiment: NCI-60 growth inhibition: IGROV1 (Ovarian Cancer); assay type: cell-based, human; conditions: Homo sapiens, IGROV-1
# OVCAR-3 = experiment: NCI-60 growth inhibition: OVCAR-3 (Ovarian Cancer); assay type: cell-based, human; conditions: Homo sapiens
# OVCAR-4 = experiment: NCI-60 growth inhibition: OVCAR-4 (Ovarian Cancer); assay type: cell-based, human; conditions: Homo sapiens
# OVCAR-5 = experiment: NCI-60 growth inhibition: OVCAR-5 (Ovarian Cancer); assay type: cell-based, human; conditions: Homo sapiens
# OVCAR-8 = experiment: NCI-60 growth inhibition: OVCAR-8 (Ovarian Cancer); assay type: cell-based, human; conditions: Homo sapiens
# 786-0 = experiment: NCI-60 growth inhibition: 786-0 (Renal Cancer); assay type: cell-based, human; conditions: Homo sapiens
# A498 = experiment: NCI-60 growth inhibition: A498 (Renal Cancer); assay type: cell-based, human; conditions: Homo sapiens
# ACHN = experiment: NCI-60 growth inhibition: ACHN (Renal Cancer); assay type: cell-based, human; conditions: Homo sapiens
# CAKI-1 = experiment: NCI-60 growth inhibition: CAKI-1 (Renal Cancer); assay type: cell-based, human; conditions: Homo sapiens
# RXF 393 = experiment: NCI-60 growth inhibition: RXF 393 (Renal Cancer); assay type: cell-based, human; conditions: Homo sapiens
# SN12C = experiment: NCI-60 growth inhibition: SN12C (Renal Cancer); assay type: cell-based, human; conditions: Homo sapiens
# TK-10 = experiment: NCI-60 growth inhibition: TK-10 (Renal Cancer); assay type: cell-based, human; conditions: Homo sapiens
# UO-31 = experiment: NCI-60 growth inhibition: UO-31 (Renal Cancer); assay type: cell-based, human; conditions: Homo sapiens
# PC-3 = experiment: NCI-60 growth inhibition: PC-3 (Prostate Cancer); assay type: cell-based, human; conditions: Homo sapiens
# DU-145 = experiment: NCI-60 growth inhibition: DU-145 (Prostate Cancer); assay type: cell-based, human; conditions: Homo sapiens
# MCF7 = experiment: NCI-60 growth inhibition: MCF7 (Breast Cancer); assay type: cell-based, human; conditions: Homo sapiens
# MDA-MB-231/ATCC = experiment: NCI-60 growth inhibition: MDA-MB-231/ATCC (Breast Cancer); assay type: cell-based, human; conditions: Homo sapiens
# HS 578T = experiment: NCI-60 growth inhibition: HS 578T (Breast Cancer); assay type: cell-based, human; conditions: Homo sapiens
# BT-549 = experiment: NCI-60 growth inhibition: BT-549 (Breast Cancer); assay type: cell-based, human; conditions: Homo sapiens
# T-47D = experiment: NCI-60 growth inhibition: T-47D (Breast Cancer); assay type: cell-based, human; conditions: Homo sapiens, T47D
# MDA-MB-468 = experiment: NCI-60 growth inhibition: MDA-MB-468 (Breast Cancer); assay type: cell-based, human; conditions: Homo sapiens; MDA-MB-468 (Breast Cancer); read-out: GI50
# [1] = tested on: MV4-11 cell line (myelomonocytic leukemia); conditions: MV4-11 cells
# HCT-116 = experiment: NCI-60 growth inhibition: HCT-116 (Colon Cancer); conditions: Homo sapiens, HCT-116
# [2] = tested on: human leukemia cell lines; experiment: NCI-60 growth inhibition, leukemia cell lines
# NCI-H522 = experiment: NCI-60 growth inhibition: NCI-H522 (Non-Small-Cell Lung Cancer); conditions: Homo sapiens, NCI-H522
smiles,measurement,setting,value
C=C1C(=O)O[C@H]2[C@H]1CC/C(COC(=O)NCc1ccc(Cn3c(=O)sn(CCCC)c3=O)cc1)=C\CC[C@@]1(C)O[C@@H]21 [BSK-230],GI50,CCRF-CEM,0.65 µM
same,GI50,HL-60(TB),1.81 µM
same,GI50,K-562,0.89 µM
same,GI50,MOLT-4,1.55 µM
same,GI50,RPMI-8226,1.48 µM
same,GI50,SR,0.4 µM
same,GI50,EKVX,3.32 µM
same,GI50,HOP-92,1.29 µM
same,GI50,NCI-H23,4.19 µM
same,GI50,NCI-H460,5.92 µM
same,GI50,COLO 205,2 µM
same,GI50,HCT-15,2.02 µM
same,GI50,HT29,2.08 µM
same,GI50,SW-620,1.51 µM
same,GI50,SF-268,4.28 µM
same,GI50,SF-539,1.68 µM
same,GI50,SNB-19,6.63 µM
same,GI50,U251,41.5 µM
same,GI50,LOX IMVI,1.65 µM
same,GI50,MALME-3M,1.6 µM
same,GI50,M14,1.45 µM
same,GI50,MDA-MB-435,1.65 µM
same,GI50,SK-MEL-2,4.53 µM
same,GI50,SK-MEL-28,1.8 µM
same,GI50,SK-MEL-5,3.18 µM
same,GI50,UACC-257,2.03 µM
same,GI50,UACC-62,1.62 µM
same,GI50,IGROV1,1.83 µM
same,GI50,OVCAR-3,1.59 µM
same,GI50,OVCAR-4,1.52 µM
same,GI50,OVCAR-5,1.93 µM
same,GI50,OVCAR-8,3.64 µM
same,GI50,786-0,2 µM
same,GI50,A498,3.28 µM
same,GI50,ACHN,1.67 µM
same,GI50,CAKI-1,1.64 µM
same,GI50,RXF 393,1.57 µM
same,GI50,SN12C,1.73 µM
same,GI50,TK-10,1.81 µM
same,GI50,UO-31,1.45 µM
same,GI50,PC-3,1.75 µM
same,GI50,DU-145,1.81 µM
same,GI50,MCF7,1.87 µM
same,GI50,MDA-MB-231/ATCC,1.8 µM
same,GI50,HS 578T,3.24 µM
same,GI50,BT-549,1.56 µM
same,GI50,T-47D,2.04 µM
same,GI50,MDA-MB-468,1.73 µM
same,"LD50, 7AAD (μM) 24 h","[1]; 24 h, 7AAD, MMB-TDZD analogs (Table 2)",0.01 µM
same,"LD50, Alamar blue (μM) 24 h","[1]; 24 h, Alamar blue, MMB-TDZD analogs (Table 2)",0.30 µM
same,"LD50, YOPRO (μM) 24 h","[1]; 24 h, YOPRO, MMB-TDZD analogs (Table 2)",0.02 µM
same,LD50,[1]; values in text,20 nM
same,GI50,HCT-116,1.36 µM
same,GI50,[2]; Homo sapiens,0.28 to 0.9 µM
same,potency against leukemia cell lines (GI50 <1.0),[2]; NCI panel,highly potent against 3 of the 6 leukemia cell lines
same,GI50,NCI-H522,1.19 µM
